The results in this text go back to paper PMC13086964, “USP7 deubiquitinase stabilizes FAN1 to support DNA crosslink repair and suppress CAG repeat expansion” (Nature Communications, 2026).

In assay [1] the test system is HeLa parental and FAN1 KO cells. As to the kind of experiment: apoptosis: PARP-1 and caspase-3 cleavage, HeLa. In kind it is cell-based, human. Conditions: 48 h. The procedure:
Fig. 4 USP7 facilitates FAN1 localization and function during ICL repair. A QIBC analysis of chromatin-bound GFP-FAN1 foci in U2OS^eGFP-FAN1 cells transfected with either non-targeting (Ctrl), USP7 or FANCD2 siRNA oligos. 24 h later, cells were either mock-treated (–) or treated (+) with MMC (150 ng/ml) for 24 h. Color-coded scatterplots (from grey to green) indicate the number of GFP-FAN1 foci per nucleus from one biological replicate. Mean (solid line) and standard deviation (SD) from the mean (dashed lines) are indicated. Representative images are shown (bottom). Scale bar: 10 μm. This experiment was repeated three times. B QIBC analysis of endogenous FANCD2 foci in U2OS^eGFP-FAN1 cells transfected with either non-targeting (Ctrl) or the indicated siRNA oligos. 24 h later, cells were either mock-treated (−) or treated (+) with MMC (150 ng/ml) for 24 h. Color-coded scatterplots (from grey to blue) indicate the number of FANCD2 foci per nucleus from one biological replicate. Mean (solid line) and standard deviation (SD) from the mean (dashed lines) are indicated. […] 24 h later, cells were either mock-treated (−) or treated (+) with MMC (1 μg/ml) for 48 h and whole-cell lysates were analysed by immunoblotting. […] Relative FAN1, cleaved PARP-1 or cleaved Caspase-3 protein levels were determined by quantification of the respective band intensity (normalized to GAPDH) with the ImageJ software. […]

The test system of a further assay is USP7 foci in U2OS cells. In words: QIBC of endogenous USP7 foci. In kind it is cell-based, human. The settings on record: MMC 150 ng/ml, 24 h. The procedure:
Automated multichannel wide-field microscopy for QIBC was performed using the Olympus ScanR System as described previously. Images of cell populations were acquired under non-saturating conditions with Olympus ScanR Image Acquisition software 3.2 and 3.3.0, typically 16 (4×4) images per coverslip, and identical settings were applied to all samples of the same experiment. Images were analysed with the inbuilt Olympus ScanR Image Analysis Software Version 3.2 and 3.3.0, a dynamic background correction was applied, and nuclei segmentation was performed using an integrated intensity-based object detection module based on the DAPI signal. All downstream analyses were focused on properly detected nuclei containing a 2C-4C DNA content as measured by total and mean DAPI intensities. Fluorescence intensities were quantified and are depicted as arbitrary units. Color-coded scatterplots of asynchronous cell populations were generated with Spotfire data visualization software (TIBCO Spotfire 10.10.1.7). Within one experiment, similar cell numbers were compared for the different conditions. For visualizing discrete data in scatterplots, mild jittering (random displacement of data points along discrete data axes) was applied to demerge overlapping data points. Representative scatterplots and quantifications of independent experiments, typically containing several thousand cells each, are shown. […]

For `CO[C@@]12[C@H](COC(N)=O)C3=C(C(=O)C(C)=C(N)C3=O)N1C[C@@H]1N[C@@H]12` [MMC, Mitomycin C], the “apoptosis (cleavage of PARP-1 and caspase-3)” value in assay [1] (HeLa FAN1 KO cells depleted of USP7, MMC 1 µg/ml) is given as “further amplified”; in assay [1] (HeLa, USP7 depletion or FAN1 loss, MMC 1 µg/ml) it was “increased apoptosis”. The USP7 nuclear foci entry in the assay with USP7 foci in U2OS cells is “increased modestly in numbers”.
